The values below come from ChEMBL document CHEMBL5465560, “Selectivity Literature for EUbOPEN Chemogenomic Library” (2024).

Experiment [1] deals with Tyrosine-protein kinase Lck (Homo sapiens, UniProt P06239). Description: Selectivity interaction (Panel of kinases, GPCRs, ion channels and transporters (enzymatic assay)) EUB0000266bCl LCK.
Experiment [2] addresses Atypical kinase COQ8A, mitochondrial (Homo sapiens, UniProt Q8NI60). Particulars: at 10 µM.
Experiment [3] concerns the target Epithelial discoidin domain-containing receptor 1 (Homo sapiens) (UniProt Q08345). Description: Selectivity interaction (KinomeScan (DiscoverX)) EUB0001049a DDR1. The conditions noted are these: at 1 µM.
The target of experiment [4] is T1, Serine/threonine-protein kinase D2 (Homo sapiens) (UniProt Q9BZL6).
T1 sequence (whole entry): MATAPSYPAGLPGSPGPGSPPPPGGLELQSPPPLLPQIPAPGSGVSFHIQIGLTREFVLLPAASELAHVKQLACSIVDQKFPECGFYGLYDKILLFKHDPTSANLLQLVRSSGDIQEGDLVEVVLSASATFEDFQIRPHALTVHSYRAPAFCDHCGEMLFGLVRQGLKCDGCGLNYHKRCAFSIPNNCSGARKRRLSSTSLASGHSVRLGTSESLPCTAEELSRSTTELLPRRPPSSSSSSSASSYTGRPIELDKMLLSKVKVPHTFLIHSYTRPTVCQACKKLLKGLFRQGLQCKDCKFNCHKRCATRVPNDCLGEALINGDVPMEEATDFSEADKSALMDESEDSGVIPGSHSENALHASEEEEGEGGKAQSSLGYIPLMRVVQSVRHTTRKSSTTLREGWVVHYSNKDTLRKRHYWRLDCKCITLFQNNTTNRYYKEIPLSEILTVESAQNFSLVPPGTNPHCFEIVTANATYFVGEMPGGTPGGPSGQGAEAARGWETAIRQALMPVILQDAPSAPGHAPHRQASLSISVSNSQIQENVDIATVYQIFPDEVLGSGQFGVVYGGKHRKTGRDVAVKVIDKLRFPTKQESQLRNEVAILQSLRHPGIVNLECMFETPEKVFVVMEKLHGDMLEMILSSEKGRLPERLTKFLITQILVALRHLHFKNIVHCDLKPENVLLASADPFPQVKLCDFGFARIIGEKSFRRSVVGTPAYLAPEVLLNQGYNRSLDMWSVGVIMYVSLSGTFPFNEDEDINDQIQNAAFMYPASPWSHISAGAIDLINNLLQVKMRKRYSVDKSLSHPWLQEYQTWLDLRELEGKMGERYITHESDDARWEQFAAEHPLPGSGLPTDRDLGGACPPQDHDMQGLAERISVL
Description: Selectivity interaction (KinomeScan (DiscoverX)) EUB0001049a PRKD2. Particulars: at 1 µM.

For experiment [5], the target named is Tyrosine-protein kinase JAK1 (Homo sapiens, UniProt P23458). Description: Selectivity interaction (KinomeScan (DiscoverX)) EUB0000045b JAK1.
Experiment [6] concerns the target T2, Atypical kinase COQ8B, mitochondrial (Homo sapiens) (UniProt Q96D53).
T2 sequence (whole entry): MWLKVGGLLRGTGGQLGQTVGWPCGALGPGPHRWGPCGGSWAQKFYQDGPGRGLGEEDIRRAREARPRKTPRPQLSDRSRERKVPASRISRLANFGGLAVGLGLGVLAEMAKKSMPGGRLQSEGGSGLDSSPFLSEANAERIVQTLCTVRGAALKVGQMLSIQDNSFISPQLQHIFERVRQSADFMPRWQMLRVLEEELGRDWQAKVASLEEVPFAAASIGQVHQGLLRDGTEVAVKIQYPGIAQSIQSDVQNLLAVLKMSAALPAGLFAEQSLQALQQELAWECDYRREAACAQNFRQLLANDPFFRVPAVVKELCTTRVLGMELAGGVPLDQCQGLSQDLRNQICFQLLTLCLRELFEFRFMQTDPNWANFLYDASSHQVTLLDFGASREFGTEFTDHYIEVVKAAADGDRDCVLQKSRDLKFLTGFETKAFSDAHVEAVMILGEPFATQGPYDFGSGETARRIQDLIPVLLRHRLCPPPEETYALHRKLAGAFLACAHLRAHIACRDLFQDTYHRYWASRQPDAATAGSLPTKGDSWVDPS
Description: Selectivity interaction (KinomeScan (DiscoverX)) EUB0000666a ADCK4. Particulars: at 10 µM.

Experiment [7] has as its target Serine/threonine-protein kinase 16 (Homo sapiens, UniProt O75716). Description: Selectivity interaction (KinomeScan (DiscoverX)) EUB0000666a STK16. The conditions noted are these: at 10 µM.
Experiment [8] concerns the target Receptor tyrosine-protein kinase erbB-2 (Homo sapiens, UniProt P04626). Description: Selectivity interaction (Kinase panel (Z-LYTE Assay)) EUB0001632a ERBB2. The conditions noted are these: at 10 µM.
In experiment [9] the target is Protein arginine N-methyltransferase 3 (Homo sapiens, UniProt O60678). Description: Selectivity interaction (Scintillation proximity assays) EUB0000230b PRMT3.
The target in experiment [10] is G protein-coupled receptor kinase 4 (Homo sapiens) (UniProt P32298). Description: Selectivity interaction (Kinase panel (Invitrogen)) EUB0000639a GRK4. The conditions noted are these: at 200 nM.
Experiment [11] concerns the target RAF proto-oncogene serine/threonine-protein kinase (Homo sapiens) (UniProt P04049). Description: Selectivity interaction (KinomeScan (DiscoverX)) EUB0000229b RAF1. Particulars: at 10 µM.
Experiment [12] concerns the target T3, Ankyrin repeat and protein kinase domain-containing protein 1 (Homo sapiens) (UniProt Q8NFD2).
T3 sequence (whole entry): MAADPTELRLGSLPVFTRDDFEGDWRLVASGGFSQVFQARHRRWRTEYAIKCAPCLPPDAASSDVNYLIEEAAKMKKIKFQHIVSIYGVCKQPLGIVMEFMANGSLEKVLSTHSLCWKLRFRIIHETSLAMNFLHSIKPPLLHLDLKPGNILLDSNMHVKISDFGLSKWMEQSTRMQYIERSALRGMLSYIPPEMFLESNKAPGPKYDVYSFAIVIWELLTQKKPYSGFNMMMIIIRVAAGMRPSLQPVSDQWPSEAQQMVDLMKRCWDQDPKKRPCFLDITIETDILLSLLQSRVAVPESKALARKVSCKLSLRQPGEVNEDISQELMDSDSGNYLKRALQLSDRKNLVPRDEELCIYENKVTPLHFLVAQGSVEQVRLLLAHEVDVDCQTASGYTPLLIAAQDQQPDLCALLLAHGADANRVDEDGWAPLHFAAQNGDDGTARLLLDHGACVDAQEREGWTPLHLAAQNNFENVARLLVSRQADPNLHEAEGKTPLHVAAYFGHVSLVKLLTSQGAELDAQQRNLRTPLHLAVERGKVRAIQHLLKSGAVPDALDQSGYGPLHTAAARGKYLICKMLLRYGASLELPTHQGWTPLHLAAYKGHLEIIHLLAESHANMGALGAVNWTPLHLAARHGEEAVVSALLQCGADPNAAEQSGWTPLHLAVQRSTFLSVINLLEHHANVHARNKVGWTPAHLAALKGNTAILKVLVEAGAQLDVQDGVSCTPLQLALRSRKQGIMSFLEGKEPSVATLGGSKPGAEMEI
Description: Selectivity interaction (KinomeScan (DiscoverX)) EUB0001619a ANKK1. Particulars: at 1 µM.

Chain of Tyrosine-protein kinase JAK1 (P23458 whole entry): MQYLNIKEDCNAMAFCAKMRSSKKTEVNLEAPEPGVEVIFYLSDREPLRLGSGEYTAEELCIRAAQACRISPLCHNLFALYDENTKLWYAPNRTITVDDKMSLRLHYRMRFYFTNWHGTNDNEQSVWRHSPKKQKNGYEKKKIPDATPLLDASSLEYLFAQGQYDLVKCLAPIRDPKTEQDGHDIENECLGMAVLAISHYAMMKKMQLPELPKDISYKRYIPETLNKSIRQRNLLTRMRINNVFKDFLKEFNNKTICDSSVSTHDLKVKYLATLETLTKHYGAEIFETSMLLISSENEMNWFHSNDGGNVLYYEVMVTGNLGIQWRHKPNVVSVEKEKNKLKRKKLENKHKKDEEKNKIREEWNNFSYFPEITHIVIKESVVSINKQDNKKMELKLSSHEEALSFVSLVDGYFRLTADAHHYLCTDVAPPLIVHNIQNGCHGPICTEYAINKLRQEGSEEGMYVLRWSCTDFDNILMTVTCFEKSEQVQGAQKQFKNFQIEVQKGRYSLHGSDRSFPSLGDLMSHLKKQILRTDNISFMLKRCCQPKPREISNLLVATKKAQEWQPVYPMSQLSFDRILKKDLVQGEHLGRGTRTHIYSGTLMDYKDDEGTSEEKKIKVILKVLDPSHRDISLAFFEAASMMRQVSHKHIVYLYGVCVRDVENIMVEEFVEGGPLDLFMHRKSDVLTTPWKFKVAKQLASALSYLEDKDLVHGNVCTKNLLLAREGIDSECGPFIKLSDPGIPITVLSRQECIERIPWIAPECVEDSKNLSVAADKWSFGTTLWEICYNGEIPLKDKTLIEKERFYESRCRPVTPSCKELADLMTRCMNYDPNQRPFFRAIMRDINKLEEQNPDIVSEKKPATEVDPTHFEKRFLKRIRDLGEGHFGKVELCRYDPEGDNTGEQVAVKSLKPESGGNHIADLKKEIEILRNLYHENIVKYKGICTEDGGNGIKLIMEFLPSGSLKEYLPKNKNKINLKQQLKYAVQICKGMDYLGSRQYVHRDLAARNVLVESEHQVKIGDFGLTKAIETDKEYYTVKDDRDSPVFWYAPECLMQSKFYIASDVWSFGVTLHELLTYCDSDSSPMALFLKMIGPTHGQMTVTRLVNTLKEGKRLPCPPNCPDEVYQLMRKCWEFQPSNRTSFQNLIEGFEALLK
Chain of Serine/threonine-protein kinase 16 (O75716 whole entry): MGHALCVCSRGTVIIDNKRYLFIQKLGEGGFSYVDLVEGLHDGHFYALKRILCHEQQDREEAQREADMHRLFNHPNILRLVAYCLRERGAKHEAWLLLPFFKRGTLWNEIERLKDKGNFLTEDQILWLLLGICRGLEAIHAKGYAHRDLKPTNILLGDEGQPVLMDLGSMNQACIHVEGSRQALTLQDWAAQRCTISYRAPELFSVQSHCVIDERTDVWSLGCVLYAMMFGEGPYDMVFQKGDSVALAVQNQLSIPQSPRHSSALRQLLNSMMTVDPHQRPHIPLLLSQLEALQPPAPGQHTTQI
Chain of Receptor tyrosine-protein kinase erbB-2 (P04626 whole entry): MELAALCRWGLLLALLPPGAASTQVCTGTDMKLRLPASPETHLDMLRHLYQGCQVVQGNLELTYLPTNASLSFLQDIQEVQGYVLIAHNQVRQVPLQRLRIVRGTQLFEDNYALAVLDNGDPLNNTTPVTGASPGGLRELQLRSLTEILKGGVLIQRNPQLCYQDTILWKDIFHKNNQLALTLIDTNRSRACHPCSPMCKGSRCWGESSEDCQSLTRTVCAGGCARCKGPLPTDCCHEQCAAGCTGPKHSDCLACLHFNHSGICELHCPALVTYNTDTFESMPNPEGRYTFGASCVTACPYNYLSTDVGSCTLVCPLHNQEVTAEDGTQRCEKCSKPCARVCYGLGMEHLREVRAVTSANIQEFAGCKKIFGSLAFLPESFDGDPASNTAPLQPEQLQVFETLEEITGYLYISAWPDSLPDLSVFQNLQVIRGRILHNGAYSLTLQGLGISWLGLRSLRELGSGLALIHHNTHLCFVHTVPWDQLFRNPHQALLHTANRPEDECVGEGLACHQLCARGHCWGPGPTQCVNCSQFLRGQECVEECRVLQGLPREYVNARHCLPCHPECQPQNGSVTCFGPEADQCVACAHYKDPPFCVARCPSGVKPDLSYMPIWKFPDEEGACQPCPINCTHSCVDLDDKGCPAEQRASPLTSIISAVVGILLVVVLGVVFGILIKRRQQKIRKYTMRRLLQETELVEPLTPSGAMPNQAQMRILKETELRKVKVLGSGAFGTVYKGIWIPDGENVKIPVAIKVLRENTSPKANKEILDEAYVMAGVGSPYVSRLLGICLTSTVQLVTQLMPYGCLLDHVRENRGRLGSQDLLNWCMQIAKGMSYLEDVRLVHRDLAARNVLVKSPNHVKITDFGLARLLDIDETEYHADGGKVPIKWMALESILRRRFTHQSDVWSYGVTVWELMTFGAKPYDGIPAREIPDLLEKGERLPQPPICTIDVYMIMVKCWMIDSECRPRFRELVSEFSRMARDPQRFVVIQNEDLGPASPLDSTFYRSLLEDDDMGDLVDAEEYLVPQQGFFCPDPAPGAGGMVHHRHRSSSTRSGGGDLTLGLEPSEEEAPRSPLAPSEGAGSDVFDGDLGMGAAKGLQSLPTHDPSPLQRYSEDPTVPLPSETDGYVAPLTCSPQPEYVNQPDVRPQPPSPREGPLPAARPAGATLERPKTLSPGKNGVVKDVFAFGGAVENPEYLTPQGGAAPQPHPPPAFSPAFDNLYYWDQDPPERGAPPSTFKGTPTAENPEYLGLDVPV
Chain of Tyrosine-protein kinase Lck (P06239 2-509 limits assumed): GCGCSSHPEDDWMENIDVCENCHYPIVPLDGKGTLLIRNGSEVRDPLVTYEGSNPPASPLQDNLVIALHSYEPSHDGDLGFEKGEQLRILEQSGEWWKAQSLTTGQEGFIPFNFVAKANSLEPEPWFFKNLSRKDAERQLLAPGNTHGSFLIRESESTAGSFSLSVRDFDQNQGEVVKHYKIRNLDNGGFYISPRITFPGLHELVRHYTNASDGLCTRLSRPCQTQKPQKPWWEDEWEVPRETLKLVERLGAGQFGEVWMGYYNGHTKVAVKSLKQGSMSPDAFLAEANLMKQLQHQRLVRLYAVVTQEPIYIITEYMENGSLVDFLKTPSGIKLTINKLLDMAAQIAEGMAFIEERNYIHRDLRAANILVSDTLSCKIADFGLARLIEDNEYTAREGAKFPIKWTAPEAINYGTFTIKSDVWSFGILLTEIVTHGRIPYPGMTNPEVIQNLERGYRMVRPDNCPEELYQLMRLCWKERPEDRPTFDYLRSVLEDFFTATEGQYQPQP
Chain of Atypical kinase COQ8A, mitochondrial (Q8NI60 163-647 limits assumed): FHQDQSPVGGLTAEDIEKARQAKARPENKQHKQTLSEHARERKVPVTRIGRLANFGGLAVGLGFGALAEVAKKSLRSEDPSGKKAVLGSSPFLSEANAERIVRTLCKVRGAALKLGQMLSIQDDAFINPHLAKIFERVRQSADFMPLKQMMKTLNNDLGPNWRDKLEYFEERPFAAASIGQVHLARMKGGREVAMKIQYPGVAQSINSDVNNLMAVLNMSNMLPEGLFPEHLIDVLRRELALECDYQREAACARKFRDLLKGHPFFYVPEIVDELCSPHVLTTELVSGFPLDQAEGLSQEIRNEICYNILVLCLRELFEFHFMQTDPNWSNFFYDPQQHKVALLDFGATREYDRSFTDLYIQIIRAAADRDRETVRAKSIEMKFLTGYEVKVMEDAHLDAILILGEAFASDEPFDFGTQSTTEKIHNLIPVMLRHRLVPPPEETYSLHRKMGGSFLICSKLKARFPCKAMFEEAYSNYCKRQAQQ
Chain of Epithelial discoidin domain-containing receptor 1 (Homo sapiens) (Q08345 whole entry, the tested form may be a part): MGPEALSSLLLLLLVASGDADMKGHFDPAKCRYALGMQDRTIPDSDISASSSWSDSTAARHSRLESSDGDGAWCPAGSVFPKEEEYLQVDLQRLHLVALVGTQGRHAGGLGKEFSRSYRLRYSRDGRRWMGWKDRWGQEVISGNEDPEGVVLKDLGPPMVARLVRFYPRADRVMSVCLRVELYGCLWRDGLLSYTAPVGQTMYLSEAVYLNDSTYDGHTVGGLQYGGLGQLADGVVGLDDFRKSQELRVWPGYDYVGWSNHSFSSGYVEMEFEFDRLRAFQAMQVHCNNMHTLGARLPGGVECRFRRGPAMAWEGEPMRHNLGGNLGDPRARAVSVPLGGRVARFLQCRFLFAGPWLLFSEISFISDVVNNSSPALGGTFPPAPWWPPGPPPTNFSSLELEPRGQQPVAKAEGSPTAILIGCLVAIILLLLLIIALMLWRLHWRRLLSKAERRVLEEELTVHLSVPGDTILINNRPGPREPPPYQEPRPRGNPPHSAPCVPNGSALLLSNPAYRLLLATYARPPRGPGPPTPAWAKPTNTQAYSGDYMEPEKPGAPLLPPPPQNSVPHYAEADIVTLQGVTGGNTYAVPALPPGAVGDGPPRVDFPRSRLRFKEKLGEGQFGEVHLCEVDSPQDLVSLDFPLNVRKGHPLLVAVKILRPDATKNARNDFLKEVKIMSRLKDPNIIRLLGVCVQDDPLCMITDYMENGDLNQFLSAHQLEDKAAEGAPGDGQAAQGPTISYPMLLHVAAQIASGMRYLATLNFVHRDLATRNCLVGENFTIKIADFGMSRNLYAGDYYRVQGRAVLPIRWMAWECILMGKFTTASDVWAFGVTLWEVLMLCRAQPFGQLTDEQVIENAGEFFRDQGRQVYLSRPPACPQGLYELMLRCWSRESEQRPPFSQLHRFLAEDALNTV

In experiment [1], `CCn1c(-c2nc3cc(C(=O)N4CCCC(N)C4)ccc3n2C)cc2ccccc21` (stereo not drawn) returned a pXC50 of less than 4.5 M. Regarding `CCN(CC)CCCCNc1ncc2cc(-c3cc(OC)cc(OC)c3)c(NC(=O)NC(C)(C)C)nc2n1`, in [2], the % of control is 100%. For `COc1cc(Nc2nc(C)cc(-c3cnn4nc(OC)ccc34)n2)cc(C(F)(F)F)c1`, the % of control in experiment [3] was 99%; in experiment [4], 100%.

For the compound `C=CC(=O)Nc1cc(-n2c(=O)ccc3cnc4ccc(-c5ccc(NS(C)(=O)=O)cc5)cc4c32)ccc1C`, the % of control came out at 87% in [5] (at 1 µM) and 76% in [5] (at 10 µM). On to `O=C(NOC[C@H](O)CO)c1ccc(F)c(F)c1Nc1ccc(I)cc1F`, for which the % of control in [6] was determined as 100%; in experiment [7], 99%.

Turning to `Cn1cc(-n2cnc3c(NCc4nc5cc(Cl)c(Cl)cc5[nH]4)nc(N4CCOCC4)nc32)cn1`, the % of control in experiment [8] is -0.819%. On to `CNCCN1CCC(c2cc(CN(C)C(=O)c3cccc(Oc4ccccc4)c3)ccn2)CC1`, for which the IC50 (as a rule, the concentration that inhibits the measured activity by half) in experiment [9] is more than 10 µM. With `CC[C@@H]1[C@H](F)C(=O)N[C@@H]1COc1nccc2cc(C(N)=O)c(OC)cc12` [ZIMLOVISERTIB], the % of inhibition in experiment [10] was -5.8%. For `COc1cc(N(C)c2ccnc3ccc(C(F)(F)F)cc23)cc(OC)c1OC`, the % binding in experiment [11] is 91%. As for `N#Cc1cccc(-c2c[nH]c3ncnc(N4CCOCC4)c23)c1`, the % of control in [12] was determined as 98%.
